Test results from PubChem BioAssay AID2202557 (NIEHS Division of Translational Toxicology (DTT)).
The source made the active and inactive calls. The rule behind the calls is not given here.

System: in vitro micronucleus assay, mammalian cells
Experiment: In vitro micronucleus assay, summary data

Compound | outcome
NCP(=O)(O)O | inactive; negative
CCc1cccc(C)c1N(C(=O)CCl)C(C)COC (stereo unspecified) | active; positive
c1cc[n+]2c(c1)-c1cccc[n+]1CC2 | active; positive
CCCCCCOc1ccc(O)cc1 | active; positive
CCOC(=O)C1=C[C@]2(CC)CCCN3CCc4c(n1c1ccccc41)[C@@H]32 | active; positive
[Cl][In]([Cl])[Cl] | active; positive
